Assay results reported in the pKa sets of Baltruschat and Czodrowski (2020).

Conditions: acidic group

Point of comparison: CC(=O)c1cc(C)c(C)cc1O, pKa 11.6. Against it:
- C[C@H](O)C(=O)C1=Nc2c(nc(N)[nH+]c2O)NC1 — lower, 1.45
- COc1cc(OC)nc(NS(=O)(=O)c2ccc(O)cc2)n1 — lower, 7.29
- CCN(CC)C(=S)NC(=O)c1ccc(F)cc1 — lower, 8.13
- CC(=O)c1ccc(F)cc1 — higher, 18.5
- O=C(O)[C@@H]1O[C@H](Oc2ccc3ccc[nH+]c3c2)[C@@H](O)[C@H](O)[C@H]1O — lower, 3
- Cc1cccc(-c2nnn[nH]2)c1 — lower, 4.15
- N#CC(C#N)=NNc1c(Cl)cccc1Cl — lower, 4.7
- CC(C)(S)C(C(=O)O)n1cc[nH+]c1Cc1ccccc1 (stereo not drawn) — lower, 1.8
- N#CC(C#N)C(C#N)C#N — lower, 3.6
- CCOC(=O)c1n[nH]c2c(c1=O)c(=O)n(C)c(=O)n2C — lower, 7.32
- NC(=S)Nc1cccc(Cl)c1 — higher, 12
- Cc1ccc(/C=N/O)cc1 — lower, 10.9
- COC(=O)Nc1ncnc2nc[nH]c12 — lower, 9.68
- O=C(O)C(c1ccc(-c2ccccc2)cc1)C(O)Cc1ccccc1 (stereo not drawn) — lower, 4.29
- Cc1ccccc1[N+](C)(C)O — lower, 4.78
- CCOC(=O)Nc1ncnc2nc[nH]c12 — lower, 9.63
- Cc1ccc([P+](c2ccc(C)cc2)(c2ccc(C)cc2)C2c3ccccc3-c3ccccc32)cc1 — lower, 9.64
- CCC(=O)c1cc(C(=O)c2ccccc2)n[nH]1 — lower, 9.14
- Cc1cc(O)n(C2CC[NH+](C)CC2)n1 — lower, 6.63
- O=C(O)[C@H]1C[C@@H]1c1cccc(Cl)c1 — lower, 4.51
- c1cn[nH]c1 — higher, 14.2
- CC(=O)OCC(=N/[O-])/C(C)=N/O — within 0.2 log units, 11.5
- Cc1ccccc(=O)c1O — lower, 7.92
- Cc1ccc(C)c(C(=O)O)c1 — lower, 3.97
- Cn1cccc1C(=O)O — lower, 4.51
- Cc1cc(CO)c(O)c(CO)c1 — lower, 9.92
- O=C(O)c1ccccc1-c1nnn[nH]1 — lower, 2.9
- CC(=O)CC(N)=O — lower, 10.4
- CC(=O)C[N+](=O)[O-] — lower, 5.1
- Cc1csc(NS(=O)(=O)c2ccc(N)cc2)n1 — lower, 7.12
- CCCCCC[NH2+]CCC(=O)O — lower, 3.61
- Oc1ccc2cc3ccccc3cc2c1 — lower, 9.92
- CN(C)/C=N/c1cccc(O)c1 — lower, 10.2
- N#CC(C#N)=NNc1ccccc1O — lower, 6.1
- CCC(C(=O)O)C(=O)N1CCCCC1 (stereo not drawn) — lower, 3.86
- CC[NH+](C)CCCNC(=O)/C=N/O — lower, 8.72
- O=C(O)CSc1ccc([N+](=O)[O-])cc1 — lower, 3.2
- NNC(=O)c1cccc(N)c1 — higher, 12.4
- O=S(=O)(NBr)c1ccccc1 — lower, 4.95
- Oc1cccc2ccnnc12 — lower, 8.25
- [NH3+][C@H]1CCC[C@@H](C(=O)O)C1 — lower, 3.7
- Cc1cc2nnn(O)c2cc1Cl — lower, 4.57
- O=C(O)[C@H]1C[C@@H]1c1cccc([N+](=O)[O-])c1 — lower, 4.41
- CC[NH+](CC)Cc1cc(Br)ccc1O — lower, 7.7
- O=[N+]([O-])c1cccc(NS(=O)(=O)c2ccccc2)c1 — lower, 6.91
- C=CC[NH2+]CCCCCCCCCCC(=O)O — lower, 4.7
- O=C(O)C[N+](=O)[O-] — lower, 1.63
- CCN(CC)Cc1ccccc1O — lower, 10.8
- CN(C)c1cccc2c(S(=O)(=O)NCC[NH+](C)C)cccc12 — lower, 8.33
- Cc1cccc(S(N)(=O)=O)c1 — lower, 9.51
- O=S(=O)(Cc1ccccc1)c1cnn[nH]1 — lower, 5.15
- CC1(C)C(=O)NC(=O)C1(C)C — lower, 9.7
- CC(C)(C)c1ccc2c(c1)C(=O)NC2=O — lower, 10.2
- [O-][n+]1c2ccccc2[n+](O)c2ccccc21 — lower, -1.62
- Cc1ccccc1OC(C)C(=O)O (stereo not drawn) — lower, 3.37
- Nc1ccc(O)cc1[O-] — lower, 11.3
- c1nc2cc3c(cc2[nH]1)CCCC3 — higher, 13.3
- O=C1C=C(S(=O)(=O)[O-])/C(=N\O)c2cn[nH]c21 — lower, 8.6
- CCOC(=O)c1ccc(O)c([N+](=O)[O-])c1 — lower, 5.44
- O=C(C[N+](=O)[O-])c1ccccc1 — lower, 5.19
- Oc1ccc2c(c1)ncc1ccccc12 — lower, 8.79
- CCc1cc([N+](=O)[O-])cc(CC)c1O — lower, 7.73
- CCc1cc(C)cc(O)c1 — lower, 10.1
- Oc1nc(C(F)(F)F)nc2[nH+]c[nH]c12 — lower, 1.1
- Nc1c2c(ncn2Cc2ccccc2)nc[n+]1[O-] — lower, 11
- [O-][n+]1cccc(O)c1 — lower, 6.4
- O=C1NC(=O)C2(CCOc3ccc(F)cc32)N1 (stereo not drawn) — lower, 8.3
- O=C1COCC(=O)C1=O — lower, 7.62
- CN(C)c1cccc2c(S(N)(=O)=O)cccc12 — lower, 9.9
- COc1cc(S(C)=O)ccc1-c1nc2ccnnc2[nH]1 (stereo not drawn) — lower, 8.7
- O=S(=O)(Nc1ccc(Cl)cc1)c1ccccc1 — lower, 7.91
- NC(=O)Cc1ccc(C(=O)O)cc1 — lower, 4.06
- COc1ccc2[nH]c3c(C)nccc3c2c1 — higher, 14.6
- Cn1cnc2c(O)[nH+]cnc21 — lower, 1.86

Same assay, conditions: basic group

Point of comparison: CC1CN2CCC1CC2 (stereo not drawn), pKa 11.3. Against it:
- Cn1ccc(=O)c2ccccc21 — lower, 2.36
- CCn1c(=O)n(C)c2ccccc21 — lower, -3.7
- CCCCCNCc1ccccc1O — lower, 8.65
- CCCCn1ccnc1 — lower, 7.14
- CC(CN(C)C)N(C)C (stereo not drawn) — lower, 9.49
- Nc1ccccc1C(=O)[O-] — lower, 4.87
- N#CC(C#N)=NNc1c(Cl)cccc1Cl — lower, -0.67
- CC1CCN1 (stereo not drawn) — lower, 11
- CCCNC(C)C(=O)[O-] (stereo not drawn) — lower, 10.2
- N[C@H]1CCCC[C@@H]1O — lower, 9.35
- C[NH+](C)CCNc1c2ccccc2nc2cccc([N+](=O)[O-])c12 — lower, 4.9
- CN(C)CCC(c1ccccc1)c1ccccn1 (stereo not drawn) — lower, 9.29
